From publication PMC10841833 (Cancer research, 2023) come the findings set out here.

For the assay, the target named is citron kinase (CIT/CRIK) (Homo sapiens, UniProt O14578). As to the kind of experiment: in vitro kinase assay. Format: biochemical.
Chain of citron kinase (CIT/CRIK) (O14578 whole entry): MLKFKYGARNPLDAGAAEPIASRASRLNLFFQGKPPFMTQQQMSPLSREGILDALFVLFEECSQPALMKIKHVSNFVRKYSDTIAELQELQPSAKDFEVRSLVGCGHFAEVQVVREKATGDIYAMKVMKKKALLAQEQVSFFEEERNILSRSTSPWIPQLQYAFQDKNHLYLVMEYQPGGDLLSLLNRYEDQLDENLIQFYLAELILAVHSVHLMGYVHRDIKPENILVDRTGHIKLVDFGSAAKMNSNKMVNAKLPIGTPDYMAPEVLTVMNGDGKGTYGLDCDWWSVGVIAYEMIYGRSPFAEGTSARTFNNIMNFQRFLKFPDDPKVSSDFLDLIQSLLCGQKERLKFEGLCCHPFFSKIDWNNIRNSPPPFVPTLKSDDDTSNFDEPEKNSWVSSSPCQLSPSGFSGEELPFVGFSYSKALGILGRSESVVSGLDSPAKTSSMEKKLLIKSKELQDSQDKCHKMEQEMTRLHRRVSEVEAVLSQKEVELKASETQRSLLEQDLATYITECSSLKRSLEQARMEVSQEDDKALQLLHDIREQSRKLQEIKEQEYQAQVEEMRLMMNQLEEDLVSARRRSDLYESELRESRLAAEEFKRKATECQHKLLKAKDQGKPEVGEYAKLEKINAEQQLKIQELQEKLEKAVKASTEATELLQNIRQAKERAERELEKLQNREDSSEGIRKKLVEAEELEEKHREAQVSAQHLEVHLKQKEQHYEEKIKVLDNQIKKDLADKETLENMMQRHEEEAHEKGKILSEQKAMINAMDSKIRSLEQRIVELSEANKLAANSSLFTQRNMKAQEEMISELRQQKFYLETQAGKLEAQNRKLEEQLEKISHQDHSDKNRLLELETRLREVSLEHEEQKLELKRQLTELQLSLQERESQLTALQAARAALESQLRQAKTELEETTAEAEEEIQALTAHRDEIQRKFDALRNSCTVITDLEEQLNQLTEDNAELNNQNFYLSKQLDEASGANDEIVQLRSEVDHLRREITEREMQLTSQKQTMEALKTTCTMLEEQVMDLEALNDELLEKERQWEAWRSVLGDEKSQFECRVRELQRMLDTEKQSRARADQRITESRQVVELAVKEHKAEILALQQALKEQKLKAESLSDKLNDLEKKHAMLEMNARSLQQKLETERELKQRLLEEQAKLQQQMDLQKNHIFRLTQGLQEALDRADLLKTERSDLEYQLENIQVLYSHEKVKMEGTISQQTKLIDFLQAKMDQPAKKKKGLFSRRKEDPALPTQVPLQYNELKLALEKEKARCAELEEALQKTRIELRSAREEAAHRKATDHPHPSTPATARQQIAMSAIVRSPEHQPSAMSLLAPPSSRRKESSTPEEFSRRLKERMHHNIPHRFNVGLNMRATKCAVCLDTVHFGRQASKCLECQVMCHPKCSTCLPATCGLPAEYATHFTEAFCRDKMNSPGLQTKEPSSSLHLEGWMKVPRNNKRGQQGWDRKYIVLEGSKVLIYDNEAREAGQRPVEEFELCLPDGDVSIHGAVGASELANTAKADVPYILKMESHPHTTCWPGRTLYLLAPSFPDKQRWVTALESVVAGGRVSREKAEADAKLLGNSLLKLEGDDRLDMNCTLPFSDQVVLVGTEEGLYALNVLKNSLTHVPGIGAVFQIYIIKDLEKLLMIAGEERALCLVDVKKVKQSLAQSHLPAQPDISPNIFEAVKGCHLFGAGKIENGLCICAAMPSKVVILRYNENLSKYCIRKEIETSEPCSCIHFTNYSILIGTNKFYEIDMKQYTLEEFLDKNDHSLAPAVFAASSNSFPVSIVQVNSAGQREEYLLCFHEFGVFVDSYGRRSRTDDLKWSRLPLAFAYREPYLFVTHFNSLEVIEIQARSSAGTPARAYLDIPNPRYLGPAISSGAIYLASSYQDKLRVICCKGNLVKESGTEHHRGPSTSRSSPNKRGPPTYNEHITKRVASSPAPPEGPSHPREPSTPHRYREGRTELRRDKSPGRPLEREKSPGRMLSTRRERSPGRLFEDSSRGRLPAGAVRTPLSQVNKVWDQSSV

For the compound `CC(=O)c1cnc2ccc(-c3cc(Cl)c(O)c(Cl)c3)nc2c1N[C@H]1CC[C@H](CN(C)C)CC1` [OTS-167], the IC50 is roughly 10 nM.

The term IC50 denotes the concentration that gives 50% inhibition.
